Five molecules from the supplement of paper PMC10307832 can be followed below.

Molecules are shown by their SMILES.

The subject of the first assay is H3255. Briefly: relative viability (nuclei count vs DMSO), 5 days (fraction); higher = more cells survive. The note with it: first compound 0.8 µM. The gist of the method:
(§1)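 Relative viability equals treated-well nuclei counts divided by vehicle-well nuclei counts. Counts came from 4× images of lung cancer cell lines grown in 1536-well plates for 5 days after pin-tool dosing on the day after seeding. Dosing used one drug alone or a fixed anchor-drug dose plus five library-drug doses (not always all listed) in √10 steps, and values are medians of duplicate plates.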
The molecule `CCCCCCCCCCCC1=C(O)C(=O)C=C(O)C1=O` [Embelin] + COc1cc2c(Oc3ccc(NC(=O)C4(C(=O)Nc5ccc(F)cc5)CC4)cc3F)ccnc2cc1OCCCN1CCOCC1 [Foretinib] (partner 0.25 µM) showed a relative viability of 1.01.
Molecule `CCCCCCCCCCCC1=C(O)C(=O)C=C(O)C1=O` [Embelin] + CS(=O)(=O)N1CCN(Cc2cc3nc(-c4cccc5[nH]ncc45)nc(N4CCOCC4)c3s2)CC1 [Pictilisib] (partner 1 µM) had a relative viability of 0.62.
Still for that read-out and setting: for `CCCCCCCCCCCC1=C(O)C(=O)C=C(O)C1=O` [Embelin] + C[C@@H](Oc1cc(-c2cnn(C3CCNCC3)c2)cnc1N)c1c(Cl)ccc(F)c1Cl [Crizotinib] (partner 1 µM) the value was 0.979.

Still in this assay, the particulars now being: first compound 2.53 µM.
In the case of `CCCCCCCCCCCC1=C(O)C(=O)C=C(O)C1=O` [Embelin] + O=C(CCCCCCC(=O)Nc1ccccc1)NO [Vorinostat] (partner 1 µM), the relative viability was determined as 0.711.
`CCCCCCCCCCCC1=C(O)C(=O)C=C(O)C1=O` [Embelin] + Cc1cc(Nc2cc(N3CCN(C)CC3)nc(Sc3ccc(NC(=O)C4CC4)cc3)n2)n[nH]1 [Tozasertib] (partner 0.1 µM): the relative viability amounted to 0.812.
For `CCCCCCCCCCCC1=C(O)C(=O)C=C(O)C1=O` [Embelin] + COc1cc2c(Oc3ccc(NC(=O)C4(C(=O)Nc5ccc(F)cc5)CC4)cc3F)ccnc2cc1OCCCN1CCOCC1 [Foretinib] (partner 0.25 µM), the relative viability came out at 0.82.
Take `CCCCCCCCCCCC1=C(O)C(=O)C=C(O)C1=O` [Embelin] + CS(=O)(=O)N1CCN(Cc2cc3nc(-c4cccc5[nH]ncc45)nc(N4CCOCC4)c3s2)CC1 [Pictilisib] (partner 1 µM): the relative viability is 0.512.
As to `CCCCCCCCCCCC1=C(O)C(=O)C=C(O)C1=O` [Embelin] + C[C@@H](Oc1cc(-c2cnn(C3CCNCC3)c2)cnc1N)c1c(Cl)ccc(F)c1Cl [Crizotinib] (partner 1 µM), the relative viability stood at 0.875.

Still in this assay, the particulars now being: first compound 8 µM.
In turn, `CCCCCCCCCCCC1=C(O)C(=O)C=C(O)C1=O` [Embelin] + O=C(CCCCCCC(=O)Nc1ccccc1)NO [Vorinostat] (partner 1 µM) gave a relative viability of 0.948.
In turn, `CCCCCCCCCCCC1=C(O)C(=O)C=C(O)C1=O` [Embelin] + Cc1cc(Nc2cc(N3CCN(C)CC3)nc(Sc3ccc(NC(=O)C4CC4)cc3)n2)n[nH]1 [Tozasertib] (partner 0.1 µM) had a relative viability of 0.851.
On to `CCCCCCCCCCCC1=C(O)C(=O)C=C(O)C1=O` [Embelin] + COc1cc2c(Oc3ccc(NC(=O)C4(C(=O)Nc5ccc(F)cc5)CC4)cc3F)ccnc2cc1OCCCN1CCOCC1 [Foretinib] (partner 0.25 µM), for which the relative viability was 0.956.
For `CCCCCCCCCCCC1=C(O)C(=O)C=C(O)C1=O` [Embelin] + CS(=O)(=O)N1CCN(Cc2cc3nc(-c4cccc5[nH]ncc45)nc(N4CCOCC4)c3s2)CC1 [Pictilisib] (partner 1 µM), the relative viability came out at 0.525.
Still for that read-out and setting: for `CCCCCCCCCCCC1=C(O)C(=O)C=C(O)C1=O` [Embelin] + C[C@@H](Oc1cc(-c2cnn(C3CCNCC3)c2)cnc1N)c1c(Cl)ccc(F)c1Cl [Crizotinib] (partner 1 µM) the value was 1.03.

The next assay concerns NCI-H1650. The description is as above. The note with it: first compound 0.08 µM. The gist of the method: as §1
The molecule `CCCCCCCCCCCC1=C(O)C(=O)C=C(O)C1=O` [Embelin] + O=C(CCCCCCC(=O)Nc1ccccc1)NO [Vorinostat] (partner 1 µM) registered a relative viability of 0.634.
The molecule `CCCCCCCCCCCC1=C(O)C(=O)C=C(O)C1=O` [Embelin] + Cc1cc(Nc2cc(N3CCN(C)CC3)nc(Sc3ccc(NC(=O)C4CC4)cc3)n2)n[nH]1 [Tozasertib] (partner 0.1 µM) returned a relative viability of 0.396.
Molecule `CCCCCCCCCCCC1=C(O)C(=O)C=C(O)C1=O` [Embelin] + COc1cc2c(Oc3ccc(NC(=O)C4(C(=O)Nc5ccc(F)cc5)CC4)cc3F)ccnc2cc1OCCCN1CCOCC1 [Foretinib] (partner 0.25 µM) yielded a relative viability of 1.09.
Still for that read-out and setting: to `CCCCCCCCCCCC1=C(O)C(=O)C=C(O)C1=O` [Embelin] + CS(=O)(=O)N1CCN(Cc2cc3nc(-c4cccc5[nH]ncc45)nc(N4CCOCC4)c3s2)CC1 [Pictilisib] (partner 1 µM) belongs 0.695; to `CCCCCCCCCCCC1=C(O)C(=O)C=C(O)C1=O` [Embelin] + C[C@@H](Oc1cc(-c2cnn(C3CCNCC3)c2)cnc1N)c1c(Cl)ccc(F)c1Cl [Crizotinib] (partner 1 µM), 0.954.

Staying with this assay, now noted: first compound 0.8 µM.
`CCCCCCCCCCCC1=C(O)C(=O)C=C(O)C1=O` [Embelin] + O=C(CCCCCCC(=O)Nc1ccccc1)NO [Vorinostat] (partner 1 µM) returned a relative viability of 0.641.
In turn, `CCCCCCCCCCCC1=C(O)C(=O)C=C(O)C1=O` [Embelin] + Cc1cc(Nc2cc(N3CCN(C)CC3)nc(Sc3ccc(NC(=O)C4CC4)cc3)n2)n[nH]1 [Tozasertib] (partner 0.1 µM) gave a relative viability of 0.452.
As to `CCCCCCCCCCCC1=C(O)C(=O)C=C(O)C1=O` [Embelin] + COc1cc2c(Oc3ccc(NC(=O)C4(C(=O)Nc5ccc(F)cc5)CC4)cc3F)ccnc2cc1OCCCN1CCOCC1 [Foretinib] (partner 0.25 µM), the relative viability was 1.05.
As for `CCCCCCCCCCCC1=C(O)C(=O)C=C(O)C1=O` [Embelin] + CS(=O)(=O)N1CCN(Cc2cc3nc(-c4cccc5[nH]ncc45)nc(N4CCOCC4)c3s2)CC1 [Pictilisib] (partner 1 µM), the relative viability worked out at 0.715.
On the same count and under the same terms, to `CCCCCCCCCCCC1=C(O)C(=O)C=C(O)C1=O` [Embelin] + C[C@@H](Oc1cc(-c2cnn(C3CCNCC3)c2)cnc1N)c1c(Cl)ccc(F)c1Cl [Crizotinib] (partner 1 µM) belongs 1.04.

Staying with this assay, now noted: first compound 2.53 µM.
`CCCCCCCCCCCC1=C(O)C(=O)C=C(O)C1=O` [Embelin] + O=C(CCCCCCC(=O)Nc1ccccc1)NO [Vorinostat] (partner 1 µM): the relative viability was 0.543.
`CCCCCCCCCCCC1=C(O)C(=O)C=C(O)C1=O` [Embelin] + Cc1cc(Nc2cc(N3CCN(C)CC3)nc(Sc3ccc(NC(=O)C4CC4)cc3)n2)n[nH]1 [Tozasertib] (partner 0.1 µM): the relative viability turned out to be 0.399.
`CCCCCCCCCCCC1=C(O)C(=O)C=C(O)C1=O` [Embelin] + COc1cc2c(Oc3ccc(NC(=O)C4(C(=O)Nc5ccc(F)cc5)CC4)cc3F)ccnc2cc1OCCCN1CCOCC1 [Foretinib] (partner 0.25 µM): the relative viability turned out to be 1.11.
In turn, `CCCCCCCCCCCC1=C(O)C(=O)C=C(O)C1=O` [Embelin] + CS(=O)(=O)N1CCN(Cc2cc3nc(-c4cccc5[nH]ncc45)nc(N4CCOCC4)c3s2)CC1 [Pictilisib] (partner 1 µM) had a relative viability of 0.632.
`CCCCCCCCCCCC1=C(O)C(=O)C=C(O)C1=O` [Embelin] + C[C@@H](Oc1cc(-c2cnn(C3CCNCC3)c2)cnc1N)c1c(Cl)ccc(F)c1Cl [Crizotinib] (partner 1 µM) displayed a relative viability of 0.981.

Still in this assay, the particulars now being: first compound 8 µM.
With `CCCCCCCCCCCC1=C(O)C(=O)C=C(O)C1=O` [Embelin] + O=C(CCCCCCC(=O)Nc1ccccc1)NO [Vorinostat] (partner 1 µM), the relative viability amounted to 0.562.
As to `CCCCCCCCCCCC1=C(O)C(=O)C=C(O)C1=O` [Embelin] + Cc1cc(Nc2cc(N3CCN(C)CC3)nc(Sc3ccc(NC(=O)C4CC4)cc3)n2)n[nH]1 [Tozasertib] (partner 0.1 µM), the relative viability was determined as 0.462.
